Assay results as given in patent US12667546B2, “Methods for manipulating cell state transitions in cancer” (AGENCY FOR SCIENCE, TECHNOLOGY AND RESEARCH, priority 2018, dated 2026).
“Also recorded” adds a separate entry of the source.

Columns and labels:
[1] = system: NAMEC8; assay: Cell morphology of treated NAMEC8; format: cell-based, human; settings: bexarotene, TTNPB, SGC-CBP30, UNC0642, A-485 1 μM, LLY-283, GSK591 20 nM, C-IN-1 500 nM
Method: Human mammary epithelial cell lines (HMLE) were generated as described and immortalized using retroviral vectors to express the catalytic subunit of the human telomerase enzyme, hTERT and the SV-40 Large T antigen. NAMEC8 was generated as described. Briefly, HMLE cells were grown to 50% confluency, followed by differential trypsinization for 1 minute with 0.05% trypsin. Detached cells were carefully collected and re-plated at approximately 200 cells per well of a 24-well plate. Upon expansion, wells were screened for populations that were morphologically mesenchymal and can be stably propagated. Clonal and non-clonal NAMEC cell lines were generated. NAMEC8 is a non-clonal line derived from at least 200 mesenchymal cells. HMLE cells and NAMECs were maintained in MEGM (Lonza).

[2] = system: NAMEC8; assay: Mammosphere assay, NAMEC8; format: cell-based, human; settings: NAMEC8, pre-treated cells
Method: (§1) For mammosphere culture, cells were seeded onto 96-well ultralow-adherence plates at 700 cells/well in Mammocult medium (Stem Cell Technologies) supplemented with 4 μg/ml heparin, 0.5 μg/ml hydrocortisone and 1% methylcellulose. Spheres (>100 μm) were counted at 7-10 days later.

[3] = system: SUM159; assay: Flow cytometry of CD44 and CD24, SUM159; format: cell-based, human
Method: (§2) Cells were harvested as per FACS and resuspended in 100 μl of solution containing CD24-PE and CD44-APC (BD-Biosciences) antibodies diluted in 2% FBS in PBS (1:40 dilution). Cells were stained for 45 min with vortexing every 10 min to ensure even staining. After antibody incubation, cells were washed once and resuspended in 300 μl 2% FBS in PBS. Cells were then filtered through a 40 μm strainer and analyzed on BD LSR Fortessa X-20 Cell Analyzer.

[4] = system: NAMEC8; assay: Expression of EMT and lineage markers (qRT-PCR, immunoblot, immunofluorescence) in NAMEC8; format: cell-based, human
Method: (§3) Cells were rinsed twice in ice-cold PBS. Total RNA was extracted using Trizol (Invitrogen) and column-purified with RNeasy kits (Qiagen). cDNA synthesis was performed with 500 ng of total RNA at 37° C. for 2 h using the SuperScript III First-Strand Synthesis System (Thermo Fisher Scientific), and subsequently diluted 5-fold. mRNA levels were measured with gene-specific primers listed below using the ABI Prism 7900HT Sequence Detection System 2.2 (Applied Biosystems). Results were normalized to GAPDH and analyzed using SDS 2.2 software.
(§4) Cells were harvested and scraped from culture dishes in ice-cold PBS. They were then centrifuged at 12000 rpm for 5 min at 4° C. The pellets were then snap frozen in liquid nitrogen or lysed in ice-cold RIPA lysis buffer (Thermo Scientific) and left on ice for 30 min. Subsequently, the lysates were centrifuged at 12000 rpm for 10 min at 4° C. The supernatants were then aspirated and placed in fresh tubes. Protein concentrations were determined using Coomaisse Blue. 50-80 μg total protein was mixed with NuPAGE™ LDS sample buffer and heated at 70° C. for 10 min. Samples were loaded into NuPAGE™ 4-12% Bis-Tris gels (precast polyacrylamide gel; Invitrogen™). Gel electrophoresis was done at 200V for 1.5 h and then blotted onto nitrocellulose membranes (Trans-Blot Turbo™ transfer pack; Bio-Rad). The membranes were blocked with 5% skimmed milk in Tris-buffered saline (TBS; 1st BASE) with 0.1% Tween-20 (Santa Cruz), and then incubated with primary antibodies overnight at 4° C. Thereafter, the membranes were incubated with a horseradish peroxidase (HRP)-conjugated secondary antibody at room temperature for one hour. Finally, the immunoreactive proteins were visualized by using an enhanced chemiluminescent (ECL) reagent (Thermo Scientific, 34075) with the Chemidoc™ Imager (Bio-Rad, 17001401).
Cell cultures were fixed in 4% paraformaldehyde and permeabilized with 0.25% Triton X-100, followed by blocking with 1% bovine serum albumin in PBST. Cells were incubated in specific primary antibodies, followed by the appropriate secondary antibodies conjugated with Alexa Fluor-488 or -594 (Molecular Probes). Cell nuclei were then stained with DAPI and then viewed and imaged with an Axio Observer D1 epifluorescence microscope with a built-in AxioCamMR3 camera (Zeiss), using the optimal filters and 100-200× magnifications.

[5] = system: SUM159; assay: Mammosphere assay, SUM159; format: cell-based, human
Method: as §1

[6] = system: NAMEC8-Ras; assay: Tumor formation of pre-treated NAMEC8-Ras injected subcutaneously; format: in vivo, NSG mice; settings: pre-treated cells, 11 weeks
[7] = system: SUM159; assay: Expression of EMT and lineage markers in SUM159; format: cell-based, human
Method: as §3
Cells were harvested and scraped from culture dishes in ice-cold PBS. They were then centrifuged at 12000 rpm for 5 min at 4° C. The pellets were then snap frozen in liquid nitrogen or lysed in ice-cold RIPA lysis buffer (Thermo Scientific) and left on ice for 30 min. Subsequently, the lysates were centrifuged at 12000 rpm for 10 min at 4° C. The supernatants were then aspirated and placed in fresh tubes. Protein concentrations were determined using Coomaisse Blue. 50-80 μg total protein was mixed with NuPAGE™ LDS sample buffer and heated at 70° C. for 10 min. Samples were loaded into NuPAGE™ 4-12% Bis-Tris gels (precast polyacrylamide gel; Invitrogen™). Gel electrophoresis was done at 200V for 1.5 h and then blotted onto nitrocellulose membranes (Trans-Blot Turbo™ transfer pack; Bio-Rad). […]

[8] = system: H3K14ac, H3K18ac and H3K27ac in NAMEC8; assay: Immunoblot of histone acetylation marks; format: cell-based, human
Method: as §4

[9] = system: NAMEC8; assay: Flow cytometry of CD44 and CD24, NAMEC8; format: cell-based, human
Method: as §2

[10] = system: MCF7-Slug+Sox9; assay: Doxycycline-induced EMT in MCF7-Slug+Sox9 cells; format: cell-based, human
Method: (§5) HMLE-Twist-ER cells were generated as described. For EMT-induction, 100 nM of 4-hydroxytamoxifen in ethanol was added to the culture medium every 48 h to induce Twist expression. Control cells were treated with ethanol. MCF7-Slug+Sox9 cells were generated as previously described. HMLE-Zeb1 cells were generated by infection with FUW-Zeb1 and rTTA. Doxycycline was added to the culture medium every 48 h to induce Zeb1 expression. To generate tumorigenic cells from NAMEC8, cells were infected with pWZL-Blast-Ras. MCF7, MCF7-Ras, SUM159 were maintained as previously described. All cell cultures were maintained at 37° C. with 5% CO2.
as §3
(§6) Cells were harvested and scraped from culture dishes in ice-cold PBS. They were then centrifuged at 12000 rpm for 5 min at 4° C. […] Protein concentrations were determined using Coomaisse Blue. […]

[11] = system: A549; assay: TGFβ-induced EMT in lung cancer cell line; format: cell-based, human
Method: as §4

[12] = system: MCF7-Slug+Sox9 tumors; assay: Orthotopic MCF7-Slug+Sox9 EMT-induced metastasis model; format: in vivo, NSG mice; settings: etomoxir 20 mg/kg per day i.p. plus doxycycline
Method: Orthotopic tumor transplantations of MCF7-Slug+Sox9 cells labeled with the tdTomato fluorescent protein were carried out as described previously. Briefly, 1×10^6 cells were resuspended in 30 μl of media containing 50% matrigel and injected into mammary fat pads of NSG mice. Mice were randomly divided into 3 groups (Control, DOX and Etomoxir+DOX). Mice were administered vehicle control (0.9% w/v NaCl) or etomoxir (20 mg/kg) via i.p. injections daily for 3 weeks. Doxycycline was then administered through drinking water for 2 weeks. Mice were sacrificed 10 weeks after doxycycline treatment was stopped and analyzed for lung metastases under a fluorescence microscope. The tumor sections were fixed overnight in 4% paraformaldehyde, immersed in 70% ethanol, and sent to the Advanced Molecular Pathlogy Lab, IMCB for paraffinization. For IF staining, slides were deparaffinized and rehydrated in PBS. The tissues were surrounded with a hydrophobic barrier using a barrier pen and blocked with the blocking buffer (1% bovine serum albumin; BSA, 1% horse serum and 0.2% Triton X-100 in PBS) for 1 hour. They were then washed with PBS and incubated in specific primary antibodies at 4° C. overnight. […] The fluorescence image analysis and the fluorescence overlay image were obtained with the Axio Vision Rel. […]

[13] = in vivo; cited from earlier work
[14] = system: SUM159; assay: Fatty acid β-oxidation assay (rate of FAO); format: cell-based, human; settings: etomoxir alone or together with bexarotene
Method: FAO rate was measured using the mitochondrial stress test on the XF96 analyzer (Seahorse Bioscience) according to manufacturer's instructions. Cells were seeded in 96well XF96 cell culture plates at a density of 9000 cells/well in complete media. Cells were then incubated with XF modified DMEM assay medium (Seahorse Bioscience) supplemented with 1 mM glutamine, 0.5 mM glucose, 1% FBS and 0.5 mM carnitine the next day for 18 h. On the day of the assay, cells were incubated with FAO assay medium (KHB: 111 mM NaCl, 4.7 mM KCl, 1.25 mM CaCl2), 2 mM MgSO4, 1.2 mM NaH2 PO4 supplemented with 2.5 mM glucose, 0.5 mM carnitine, 5 mM HEPES, adjusted to pH7.4) 45 min prior to the assay in a non-CO2 incubator. Seahorse XF Cell Mito Stress Test compounds (2 μM oligomycin, 2 μM FCCP, 2 μM rotenone). For inhibition of FAO, etomoxir (40 μM) was added 15 min prior to the assay. Just prior to starting the assay, XF Palmitate-BSA FAO substrate or BSA was added to the cells. Plate was then put into the XF96 analyzer and the XF Cell Mito Stress Test was run using the recommended protocol. Rate of FAO was calculated by the difference in maximal respiration when Palmitate-BSA FAO substrate was supplemented relative to BSA control.

[15] = system: HMLE-Twist ER; assay: 4-OHT-induced EMT in HMLE-Twist ER cells; format: cell-based, human
Method: as §5, §3, §6

Row | SMILES | cell morphology [1] | mammosphere formation [2] | CD44/CD24 surface expression [3] | expression of EMT and basal/luminal markers ([4]; transcript and protein) | mammosphere formation [5] | tumor formation / tumor size [6] | expression of EMT and lineage markers / epithelial features [7] | histone acetylation marks [8] | CD44/CD24 surface expression [9] | Slug+Sox9-induced EMT [10] | MET phenotype: induction and durability after drug withdrawal ([4]; drugs removed for at least seven days) | TGFβ-induced EMT [11] | EMT markers in primary tumors (E-cadherin, Vimentin) [12] | clinical outcome / toxicity [13] | FAO activity [14] | 4-OHT-induced EMT [15]
1 | COc1ccc(CCc2nc3cc(-c4c(C)noc4C)ccc3n2C[C@H](C)N2CCOCC2)cc1Cl [SGC-CBP30] | obvious change in cell morphology from scattered, spindle- and fibroblastic-like cells, to tight clusters of epithelial islands; also recorded: resulted in epithelial-like morphology | significantly reduce the size and number of spheres formed | slight decrease in CD44 expression, with a population of cells gaining the expression of CD24; also recorded: decreased CD44 expression and higher CD24 expression | significantly increased epithelial marker E-cadherin expression, as well as downregulated several mesenchymal markers, fibronectin, ZEB1 and SLUG; also recorded: most drastic change as compared to the other compounds | significant reduction in spheres formation and spheres size | significantly smaller tumors after 11 weeks; also recorded: significantly reduced tumor formation in mice | increasing epithelial features and decreasing stemness in SUM159 | all the acetylation marks were decreased but to a lesser extent compared to A-485 treatment | population of cells with lower CD44 expression was observed; also recorded: Population of cells with decreased CD44 expression was observed |  |  |  |  |  |  | 
2 | CCOC(=O)[C@@]1(CCCCCCOc2ccc(Cl)cc2)CO1 [etomoxir] |  |  |  |  |  |  |  |  |  | blocked Slug+Sox9-induced EMT | unable to do so | blocking TGFβ-induced EMT | retention of the epithelial features | failed clinical trials due to liver toxicity | completely inhibited FAO activity | dramatically block this transition
